US6589953B2, “Indole derivatives as 5-HT1B and 5-HT1D agonists” (Pierre Fabre Medicament, priority 1997, dated 2003)

SMILES	melting point
NCCc1c[nH]c2ccc(OCC(=O)N3CCN(c4ccc(-c5nnc(-c6ccccc6)o5)cc4)CC3)cc12.O=C(O)/C=C/C(=O)O	170 °C
NCCc1c[nH]c2ccc(OCC(=O)N3CCN(c4ccc(-c5cccs5)cc4)CC3)cc12.O=C(O)/C=C/C(=O)O	154 to 156 °C
Cc1ccccc1-c1nnc(-c2ccc(N3CCN(C(=O)COc4ccc5[nH]cc(CCN)c5c4)CC3)cc2)o1.O=C(O)/C=C/C(=O)O	123 °C
Cc1ccc(-c2nnc(-c3ccc(N4CCN(C(=O)COc5ccc6[nH]cc(CCN)c6c5)CC4)cc3)o2)cc1.O=C(O)/C=C/C(=O)O	135 °C
NCCc1c[nH]c2ccc(OCC(=O)N3CCN(c4ccc(-c5nc6ccccc6s5)cc4)CC3)cc12.O=C(O)/C=C/C(=O)O	156 to 160 °C
NCCc1c[nH]c2ccc(OCC(=O)N3CCN(c4ccc(-c5ccncc5)cc4)CC3)cc12.O=C(O)/C=C/C(=O)O	176 °C

Results, then the compound that gave them:

melting point	SMILES
170 °C	NCCc1c[nH]c2ccc(OCC(=O)N3CCN(c4ccc(C5=NCCO5)cc4)CC3)cc12.O=C(O)/C=C/C(=O)O
64 to 66 °C (dec.)	Cl.Cl.NCCc1c[nH]c2ccc(OCC(=O)N3CCN(c4ccc(-c5ncco5)cc4)CC3)cc12
225 to 227 °C	Cl.NCCc1c[nH]c2ccc(OCC(=O)N3CCN(c4ccc(-c5nn[nH]n5)cc4)CC3)cc12
